Experimental findings from PMC7248880, “Preclinical Incorporation Dosimetry of [^18F]FACH—A Novel ^18F-Labeled MCT1/MCT4 Lactate Transporter Inhibitor for Imaging Cancer Metabolism with PET” (Molecules, 2020) are described below.

Data set [1] is described as follows: Whole-body PET/CT distribution of activity. It counts as in vivo, piglets. The procedure: Early accumulation in the bone structures might be related to defluorination. At later time points, activity also accumulated in the gall bladder and the urinary bladder.
Three piglets (age: ~6 weeks, weight: ~13–15 kg) were fasted on the day of imaging and received an intranuscular. injection of 1 mL azaperone and 4 mL ketamine to introduce anesthesia. […] During narcosis, the animals maintained spontaneous respiration and no mandatory ventilation was applied. The subjects were sequentially imaged after an iv injection (contralateral ear vein) of 156 ± 54 MBq [^18F]FACH (0.63 ± 0.49 µg) in a PET/CT system (Biograph16, SIEMENS, Erlangen, Germany). The piglets were positioned prone with legs alongside the body on a custom-made plastic trough including a piglet head-holder (Figure 5). The PET acquisition was divided into a sequential (4 × 9 min, 3 × 12 min) and a static part (1 × 24 min, 1 × 30 min, 1 × 36 min), each of which was preceded by a low-dose CT to acquire structural data for attenuation correction (AC) and anatomical orientation (Figure 6). Post mortem, the urine was collected by bladder punctuation, weighted, and divided into three 1 mL samples for activity measurements in a gamma-counter (Packard Cobra II 5003 Auto Gamma Counting System, GMI, Ramsey, MN, USA).
The image data were analyzed with ROVER (ABX, Radeberg, Germany; v. 3.0.46h). […]

Data set [2] is described as follows: Vital sign monitoring after iv injection. The format is in vivo. The settings on record: iv 156 ± 54 MBq (0.63 ± 0.49 µg), anesthetized piglets. An excerpt: The radiation safety of the newly developed MCT1/MCT4-specific radioligand [^18F]FACH was preclinically investigated. […] Afterwards, volumes of interest (VOIs) of the various organs were manually defined using the respective whole-body CT dataset for anatomical orientation. The estimated TIACs were extrapolated to the human entity (Equation (2)), followed by estimation of the organ doses with OLINDA 2.1 and calculation of the effective dose using tissue weighting factors as published in Publication 103 of the International Commission of Radiation Protection (ICRP103). Finally, it can be concluded that [^18F]FACH is safe with respect to the radiation risk that is caused by its systemic application for PET studies. This supports and encourages the translation of this newly developed radiopharmaceutical to clinical study phases.
Three piglets (age: ~6 weeks, weight: ~13–15 kg) were fasted on the day of imaging and received an intranuscular. injection of 1 mL azaperone and 4 mL ketamine to introduce anesthesia. […] During narcosis, the animals maintained spontaneous respiration and no mandatory ventilation was applied. The subjects were sequentially imaged after an iv injection (contralateral ear vein) of 156 ± 54 MBq [^18F]FACH (0.63 ± 0.49 µg) in a PET/CT system (Biograph16, SIEMENS, Erlangen, Germany). […]

As to `CCCN(CCC[18F])c1ccc(/C=C(\C#N)C(=O)O)c(OC)c1` [[^18F]FACH, (E)-2-cyano-3-{4-[(3-[^18F]fluoropropyl)(propyl)amino]-2-methoxyphenyl}acrylic acid], the “distribution of activity (organs with high uptake)” value in data set [1] (one representative animal, PET at different times p.i.) is “high uptake in the liver, pancreas, small intestines, and spleen”. For the same compound, the “route of excretion indicated by PET” value in data set [1] (rapid uptake in liver, later gall bladder) was “hepatobiliary excretion”. Besides, in data set [2], the “adverse effects based on vital sign monitoring” value is listed as “no adverse effects were observed”.
